Experiment [1] has as its target T1, IDO (Homo sapiens (Human), UniProt P14902). Description: SKOV3 (IDO) cell based assay for detection of kynurenine. As to conditions: SKOV3 cells, IDO induced by IFN-γ, 48 hours, read-out: pIC50 SKOV3 (IDO) cell based assay (converted). As to the method:
(§1) Exemplary compounds disclosed herein were prepared, and tested to determine their effect as IDO and/or TDO inhibitors. Two different assays were employed: 1. a cell-based assay for detecting the effect of test compounds on kynurenine production in two different cancer cell types. This assay utilized cancer cells which expressed either TDO or IDO and as such was used as a means of testing compound activity at these two enzymes in a cell-based context. 2. a TDO and IDO biochemical coupled assay which utilized recombinantly produced and purified TDO and IDO enzymes in combination with the enzyme formamidase. This coupled enzyme system allowed conversion of N-formylkynurenine produced by TDO or IDO activity to kynurenine which was then quantified by fluorescence following addition of Erhlich's Reagent. The protocols for these are set out below.
(§2) A172 and SKOV3 Cell Based Assays for Detection of Kynurenine Produced by TDO and/or IDO
(§3) A172 (human glioblastoma) and SKOV3 (human ovarian adenocarcinoma) cells were seeded in a 96 well plate at 30,000 or 40,000 cells per well respectively in phenol red-free RPMI supplemented with 10% FCS, 2 mM L-glutamine and 500 μM L-tryptophan. IDO expression was induced in the SKOV3 cells by the addition of 500 ng/ml IFN-γ. Cells were incubated at 37° C. with or without the addition of test compound. After 48 hours, the cells were removed by centrifugation and Erhlich's reagent was added to the supernatant.

Experiment [2] concerns the target T2, TDO (Homo sapiens (Human), UniProt P48775). Description: A172 (TDO) cell based assay for detection of kynurenine. As to conditions: A172 cells, 48 hours, read-out: pIC50 A172 (TDO) cell based assay (converted). The protocol: as §1, §2, §3
Experiment [3] deals with T1, IDO. Description: hIDO biochemical coupled assay. As to conditions: 45 μM L-tryptophan. The protocol: as §1
(§4) TDO and IDO Biochemical Coupled Assay
(§5) Recombinant human IDO or TDO was incubated in 50 mM KPO4 (pH 7.0), 0.5 mM EGTA, 0.5 mM EDTA, 0.05% Triton™ X100, 20 mM ascorbate, 10 μM methylene blue, 500 U/ml catalase, 50 μg/ml KynB (kynurenine formamidase). […] After incubation for 17 minutes at room temperature the reactions were stopped by the addition of Erhlich's reagent and incubated at room temperature for 5 minutes before the fluorescence was read.

For experiment [4], the target named is T2, TDO. Description: hTDO biochemical coupled assay. The conditions noted are these: 330 μM L-tryptophan. As to the method:
as §1, §4, §5

Data on 15 molecules can be found in patent US11096930B2, “Substituted imidazopyridine compounds as inhibitors of indoleamine 2,3-dioxygenase and/or tryptophan-2,3-dioxygenase” (IOMet Pharma Ltd., priority 2016, dated 2021).

T1 sequence (P14902 whole entry): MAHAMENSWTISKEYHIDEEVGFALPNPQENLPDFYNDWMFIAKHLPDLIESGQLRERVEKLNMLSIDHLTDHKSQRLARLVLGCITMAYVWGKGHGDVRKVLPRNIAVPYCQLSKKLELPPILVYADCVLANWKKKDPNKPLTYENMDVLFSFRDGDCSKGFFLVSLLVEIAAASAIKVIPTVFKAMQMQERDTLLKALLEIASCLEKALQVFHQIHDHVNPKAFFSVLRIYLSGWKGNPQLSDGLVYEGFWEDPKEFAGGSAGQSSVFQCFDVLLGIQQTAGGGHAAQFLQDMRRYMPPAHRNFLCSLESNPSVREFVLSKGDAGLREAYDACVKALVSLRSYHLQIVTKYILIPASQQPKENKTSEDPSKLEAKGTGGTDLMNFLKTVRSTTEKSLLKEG
T2 sequence (P48775 whole entry): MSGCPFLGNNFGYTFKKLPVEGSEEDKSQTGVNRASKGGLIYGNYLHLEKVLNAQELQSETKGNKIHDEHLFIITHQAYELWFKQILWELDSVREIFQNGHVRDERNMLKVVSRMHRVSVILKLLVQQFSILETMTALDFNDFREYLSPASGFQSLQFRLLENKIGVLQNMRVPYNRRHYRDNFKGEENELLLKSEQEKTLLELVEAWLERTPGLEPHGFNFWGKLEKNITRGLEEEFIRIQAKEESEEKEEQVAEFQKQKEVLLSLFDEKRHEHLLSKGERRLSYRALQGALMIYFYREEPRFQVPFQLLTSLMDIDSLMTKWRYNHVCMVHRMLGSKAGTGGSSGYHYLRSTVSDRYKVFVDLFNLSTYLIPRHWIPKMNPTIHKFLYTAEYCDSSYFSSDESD

For the molecule `O=C1NC(=O)C2(CCN(c3cc(C(F)(F)F)cc4cncn34)CC2)N1` [Example 1, 8-(7-(Trifluoromethyl)imidazo[1,5-a]pyridin-5-yl)-1,3,8-triazaspiro[4.5]decane-2,4-dione], the IC50 is 0.617 µM at IDO [1] and more than 10 µM on TDO [2]. Moreover, the “pIC50 hIDO biochemical coupled assay” value on IDO [3] was 7.53. In addition, the “pIC50 hTDO biochemical coupled assay” value at TDO [4] came to 5.6.

Regarding `O=C1NC(=O)C2(CCN(c3cc(Br)cc4cncn34)CC2)N1` [Example 2, 8-(7-Bromoimidazo[1,5-a]pyridin-5-yl)-1,3,8-triazaspiro[4.5]decane-2,4-dione], the IC50 is 0.562 µM on IDO [1] and more than 10 µM at TDO [2]. Besides, on IDO [3], the “pIC50 hIDO biochemical coupled assay” value worked out at 7.19. Moreover, at TDO [4], the “pIC50 hTDO biochemical coupled assay” value is 6.29.

Take `O=C1NC(=O)C2(CCN(c3cc(Cl)cc4cncn34)CC2)N1` [Example 3, 8-(7-Chloroimidazo[1,5-a]pyridin-5-yl)-1,3,8-triazaspiro[4.5]decane-2,4-dione]: the IC50 on IDO [1] was 1.41 µM; on TDO [2], more than 10 µM. For the same molecule, the “pIC50 hIDO biochemical coupled assay” value at IDO [3] is 6.55. On TDO [4], the “pIC50 hTDO biochemical coupled assay” value worked out at 5.85.

Regarding `O=C1NC(=O)C2(CCN(c3cc(C(F)(F)F)cn4cncc34)CC2)N1` [Example 4, 8-(6-(Trifluoromethyl)imidazo[1,5-a]pyridin-8-yl)-1,3,8-triazaspiro[4.5]decane-2,4-dione], the values for the IC50 on IDO [1] and on TDO [2] were 4.79 µM and more than 10 µM, respectively. The “pIC50 hIDO biochemical coupled assay” value on IDO [3] stood at 5.99. In addition, on TDO [4], the “pIC50 hTDO biochemical coupled assay” value is recorded as 5.84.

As to `CN1C(=O)NC2(CCN(c3cc(C(F)(F)F)cc4cncn34)CC2)C1=O` [Example 6, 3-Methyl-8-(7-(trifluoromethyl)imidazo[1,5-a]pyridin-5-yl)-1,3,8-triazaspiro[4.5]decane-2,4-dione], the IC50 was 6.17 µM at IDO [1] and more than 10 µM at TDO [2]. Also, the “pIC50 hIDO biochemical coupled assay” value at IDO [3] turned out to be 5.89. For the same molecule, the “pIC50 hTDO biochemical coupled assay” value on TDO [4] stood at 5.74.

As to `O=C1NC2(CCN(c3cc(C(F)(F)F)cc4cncn34)CC2)C(=O)N1CC1CCOCC1` [Example 7, 3-((Tetrahydro-2H-pyran-4-yl)methyl)-8-(7-(trifluoromethyl)imidazo[1,5-a]pyridin-5-yl)-1,3,8-triazaspiro[4.5]decane-2,4-dione], the IC50 at IDO [1] is 3.63 µM; at TDO [2] it was 10 µM. The “pIC50 hIDO biochemical coupled assay” value at IDO [3] is on record as 5.92. Moreover, on TDO [4], the “pIC50 hTDO biochemical coupled assay” value turned out to be 5.4.

Turning to `CC1(C)CN(c2cc(Cl)cc3cncn23)CCC12NC(=O)NC2=O` (stereo not shown) [Example 8, 8-(7-Chloroimidazo[1,5-a]pyridin-5-yl)-6,6-dimethyl-1,3,8-triazaspiro[4.5]decane-2,4-dione], the IC50 on IDO [1] was 0.2 µM; on TDO [2] it was 7.94 µM.

On to `O=C1NC2(CCN(c3cc(C(F)(F)F)cc4cncn34)CC2)C(=O)N1c1ccccc1` [Example 9, 3-Phenyl-8-(7-(trifluoromethyl)imidazo[1,5-a]pyridin-5-yl)-1,3,8-triazaspiro[4.5]decane-2,4-dione], for which the IC50 on IDO [1] was 1.74 µM; at TDO [2], more than 10 µM. Also, the “pIC50 hIDO biochemical coupled assay” value at IDO [3] came to 6.58. The “pIC50 hTDO biochemical coupled assay” value at TDO [4] is on record as 5.78.

For `CN1C(=O)NC2(CCN(c3cc(C(F)(F)F)cc4cncn34)CC2(C)C)C1=O` (stereo not shown) [Example 10, 3,6,6-Trimethyl-8-(7-(trifluoromethyl)imidazo[1,5-a]pyridin-5-yl)-1,3,8-triazaspiro[4.5]decane-2,4-dione], the IC50 was 7.76 µM at IDO [1] and more than 10 µM on TDO [2]. Also, at IDO [3], the “pIC50 hIDO biochemical coupled assay” value is given as 6.2. The “pIC50 hTDO biochemical coupled assay” value at TDO [4] amounted to 5.57.

In the case of `CC1(C)CN(c2cc(Cl)cc3cncn23)CCC12NC(=O)NC2=O` (stereo not shown) [Example 11, 8-(7-Chloroimidazo[1,5-a]pyridin-5-yl)-6,6-dimethyl-1,3,8-triazaspiro[4.5]decane-2,4-dione], the IC50 is 3.72 µM at IDO [1] and 2.09 µM at TDO [2]. Also, at IDO [3], the “pIC50 hIDO biochemical coupled assay” value amounted to 6.99. In addition, the “pIC50 hTDO biochemical coupled assay” value at TDO [4] came to 6.33.

On to `CC1(C)CN(c2cc(C(F)(F)F)cn3cncc23)CCC12NC(=O)NC2=O` (stereo not shown) [Example 12, 6,6-Dimethyl-8-(6-(trifluoromethyl)imidazo[1,5-a]pyridin-8-yl)-1,3,8-triazaspiro[4.5]decane-2,4-dione], for which the IC50 on IDO [1] was 1.17 µM; at TDO [2] it was 0.661 µM. At IDO [3], the “pIC50 hIDO biochemical coupled assay” value turned out to be 5.74. Besides, at TDO [4], the “pIC50 hTDO biochemical coupled assay” value was 6.1.

With `O=C1CC2(CCN(c3cc(C(F)(F)F)cc4cncn34)CC2)C(=O)N1` [Example 13, 8-(7-(trifluoromethyl)imidazo[1,5-a]pyridin-5-yl)-2,8-diazaspiro[4.5]decane-1,3-dione], the figures for the IC50 on IDO [1] and on TDO [2] were 1.26 µM and more than 10 µM, respectively. The “pIC50 hIDO biochemical coupled assay” value on IDO [3] came to 6.53. Moreover, the “pIC50 hTDO biochemical coupled assay” value on TDO [4] is reported as 5.77.

In the case of `CC1(C)CN(c2cc(C(F)(F)F)cc3cncn23)CCC12NC(=O)N(CC1CCOCC1)C2=O` (stereo not shown) [Example 14, 6,6-dimethyl-3-((tetrahydro-2H-pyran-4-yl)methyl)-8-(7-(trifluoromethyl)imidazo[1,5-a]pyridin-5-yl)-1,3,8-triazaspiro[4.5]decane-2,4-dione], the IC50 on IDO [1] was 4.68 µM; at TDO [2], more than 10 µM. The “pIC50 hIDO biochemical coupled assay” value at IDO [3] is listed as 5.92. Moreover, the “pIC50 hTDO biochemical coupled assay” value on TDO [4] is on record as 4.78.

Regarding `CC1(C)CN(c2cc(C(F)(F)F)cc3cncn23)CCC12NC(=O)N(c1ccccc1)C2=O` (stereo not shown) [Example 15, 6,6-Dimethyl-3-phenyl-8-(7-(trifluoromethyl)imidazo[1,5-a]pyridin-5-yl)-1,3,8-triazaspiro[4.5]decane-2,4-dione], the IC50 at IDO [1] is 5.62 µM; on TDO [2], more than 10 µM. For the same molecule, the “pIC50 hIDO biochemical coupled assay” value on IDO [3] is on record as 5.66. At TDO [4], the “pIC50 hTDO biochemical coupled assay” value is listed as 4.42.

On to `CC1(C)CN(c2cc(Br)cc3cncn23)CCC12NC(=O)NC2=O` (stereo not shown) [Example 16, 8-(7-Bromoimidazo[1,5-a]pyridin-5-yl)-6,6-dimethyl-1,3,8-triazaspiro[4.5]decane-2,4-dione], for which the values for the IC50 on IDO [1] and at TDO [2] were 0.135 µM and 7.94 µM, respectively. The “pIC50 hIDO biochemical coupled assay” value at IDO [3] was 7.06. Moreover, the “pIC50 hTDO biochemical coupled assay” value at TDO [4] was 5.92.
